# Measurements reported in patent US20170283804A1, “ANTISENSE COMPOUNDS AND USES THEREOF” (Ionis Pharmaceuticals, Inc., priority 2014, published 2017).
# k = constrained ethyl (cEt); d = 2'-deoxy (DNA)
# Columns and labels:
# [1] = Liver transaminase levels (ALT, AST) in serum, Example 3; assay type: in vivo; details: mice serum
# Description: (§1) Each treatment group consisted of 4 animals.
# [2] = tested on: mouse Metastasis associated lung adenocarcinoma transcript 1 (Malat-1); assay: In vivo dose response of Isis No. 556062 with and without FTY-720 pre-treatment (Malat-1 RNA, Example 3); details: mice, Liver
# Method: as §1
# Malat-1 RNA levels were determined as described in Example 2. The results are presented in Table 18 as average Malat-1 RNA levels for each treatment group. Results for groups that received Isis No. 556062 alone are relative the group that received only PBS, and results for groups that received Isis No. 556062 and 1 mg/kg FTY-720 are relative to the group that received 1 mg/kg FTY-720 and PBS in place of Isis No. 556062.
# [3] = 0.3 mg/kg 556062 subcutaneous, FTY-720 dose 0 mg/kg
# [4] = 0.3 mg/kg 556062 subcutaneous, FTY-720 dose 1 mg/kg
# [5] = 1 mg/kg 556062 subcutaneous, FTY-720 dose 0 mg/kg
# [6] = 1 mg/kg 556062 subcutaneous, FTY-720 dose 1 mg/kg
# [7] = 3 mg/kg 556062 subcutaneous, FTY-720 dose 0 mg/kg
# [8] = 3 mg/kg 556062 subcutaneous, FTY-720 dose 1 mg/kg
# [9] = 9 mg/kg 556062 subcutaneous, FTY-720 dose 0 mg/kg
# [10] = 9 mg/kg 556062 subcutaneous, FTY-720 dose 1 mg/kg
substance,measurement,setting,value
"556062 (antisense GGCTTAATGCAGCATT; sugars from the 5' end k3 d10 k3, all phosphorothioate, methylation of C not given here) [compound 556062]",ALT,[1]; [3],24 U/L
same,AST,[1]; [3],48 U/L
same,ALT,[1]; [4],17 U/L
same,AST,[1]; [4],48 U/L
same,ALT,[1]; [5],56 U/L
same,AST,[1]; [5],50 U/L
same,ALT,[1]; [6],18 U/L
same,AST,[1]; [6],45 U/L
same,ALT,[1]; [7],24 U/L
same,AST,[1]; [7],58 U/L
same,ALT,[1]; [8],25 U/L
same,AST,[1]; [8],40 U/L
same,ALT,[1]; [9],31 U/L
same,AST,[1]; [9],71 U/L
same,ALT,[1]; [10],24 U/L
same,AST,[1]; [10],46 U/L
same,Average Malat-1 RNA,[2]; [3],80 % control
same,Average Malat-1 RNA,"[2]; 0.3 mg/kg 556062 subcutaneous, FTY-720 dose 1 mg/kg i.p. daily",63 % control
same,Average Malat-1 RNA,[2]; [5],49 % control
same,Average Malat-1 RNA,"[2]; 1 mg/kg 556062 subcutaneous, FTY-720 dose 1 mg/kg i.p. daily",36 % control
same,Average Malat-1 RNA,[2]; [7],18 % control
same,Average Malat-1 RNA,"[2]; 3 mg/kg 556062 subcutaneous, FTY-720 dose 1 mg/kg i.p. daily",19 % control
same,Average Malat-1 RNA,[2]; [9],11 % control
same,Average Malat-1 RNA,"[2]; 9 mg/kg 556062 subcutaneous, FTY-720 dose 1 mg/kg i.p. daily",6 % control
